The target in the experiment is T1, human GPR119 (Homo sapiens, UniProt Q8TDV5).
T1 construct: expression vector for human GPR119 cDNA (Acc. No. NP_848566); expressed in transfected cells
T1 sequence (Q8TDV5 1-335): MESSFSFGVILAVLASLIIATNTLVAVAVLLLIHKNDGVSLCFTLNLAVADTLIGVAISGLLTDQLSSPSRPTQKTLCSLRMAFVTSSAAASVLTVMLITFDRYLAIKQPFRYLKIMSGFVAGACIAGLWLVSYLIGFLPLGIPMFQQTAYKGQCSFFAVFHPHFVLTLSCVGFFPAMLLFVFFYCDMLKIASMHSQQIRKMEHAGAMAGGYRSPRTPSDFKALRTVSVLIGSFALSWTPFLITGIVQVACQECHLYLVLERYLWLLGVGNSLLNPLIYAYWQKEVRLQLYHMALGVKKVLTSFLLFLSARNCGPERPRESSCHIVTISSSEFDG
The experiment can be described thus: AlphaScreen cAMP assay in Min-6/hGPR119 cells (activation of GPR119, intracellular cAMP). Format: cell-based. To be noted: MIN6 cells stably transfected with human GPR119; cAMP by AlphaScreen after 45 minutes incubation at room temperature. In a few lines: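 MIN6 cells stably expressing human GPR119, seeded 24 h before treatment; compounds applied 45 min at ~20 °C in Hepes-buffered saline pH 7.4 with 0.5 mM IBMX, 0.1% BSA, 1% DMSO final. Intracellular cAMP measured by AlphaScreen.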
For orientation: Bead proximity is the source of the signal in Alpha formats.
By EC50 is commonly meant the concentration needed to bring the measured effect to its halfway point. Low values mean greater potency, high ones weaker potency. For the molecule `CC(C)OC(=O)N1CCC(C2Cc3cc(-c4cccc(C#N)c4)ccc3O2)CC1` (centres unmarked) [Example 103, 4-[5-(3-Cyano-phenyl)-2,3-dihydro-benzofuran-2-yl]-piperidine-1-carboxylic acid isopropyl ester], the EC50 was 186 nM.
For `CC(=O)c1ccc(-c2ccc3c(c2)CC(C2CCN(C(=O)OC(C)C)CC2)O3)cc1` (centres unmarked) [Example 104], the EC50 turned out to be 200 nM.
The molecule `CC(C)OC(=O)N1CCC(C2Cc3cc(-c4ccc(CC#N)cc4)ccc3O2)CC1` (centres unmarked) [Example 105] gave an EC50 of 99 nM.
Regarding `Cc1noc(C)c1-c1ccc2c(c1)CC(C1CCN(C(=O)OC(C)C)CC1)O2` (centres unmarked) [Example 106], the EC50 is 1710 nM.
`CC(C)OC(=O)N1CCC(C2Cc3cc(-c4cccc(S(C)(=O)=O)c4)ccc3O2)CC1` (centres unmarked) [Example 107]: it took 1120 nM to reach a half-maximal effect (EC50). This EC50 is about 1.5-fold lower than that of the molecule before.
The result for `COc1ncc(-c2ccc3c(c2)CC(C2CCN(C(=O)OC(C)C)CC2)O3)cn1` (centres unmarked) [Example 108] reads 1980 nM; that for `CCNC(=O)c1ccc(-c2ccc3c(c2)CC(C2CCN(C(=O)OC(C)C)CC2)O3)cc1` (centres unmarked) [Example 109], 28 nM; that for `CC(C)OC(=O)N1CCC(C2Cc3cc(-c4ccc(S(N)(=O)=O)cc4)ccc3O2)CC1` (centres unmarked) [Example 110], 52 nM.
The result for `CC(C)OC(=O)N1CCC(C2Cc3cc(-c4ccc(C#N)c(F)c4)ccc3O2)CC1` (centres unmarked) [Example 111] reads 152 nM; that for `CC(C)OC(=O)N1CCC(C2Cc3cc(-c4cnc(C#N)nc4)ccc3O2)CC1` (centres unmarked) [Example 112], 320 nM; that for `CC(C)OC(=O)N1CCC(C2Cc3cc(-c4ccncc4F)ccc3O2)CC1` (centres unmarked) [Example 113], 167 nM.
The result for `COC(=O)c1ccc(-c2ccc3c(c2)CC(C2CCN(C(=O)OC(C)C)CC2)O3)cn1` (centres unmarked) [Example 114] reads 527 nM; that for `CC(C)OC(=O)N1CCC(C2Cc3cc(-c4ccc(S(C)(=O)=O)cc4F)ccc3O2)CC1` (centres unmarked) [Example 115], 42 nM.
`COC(=O)c1cc(-c2ccc3c(c2)CC(C2CCN(C(=O)OC(C)C)CC2)O3)cs1` (centres unmarked) [Example 116]: the EC50 was 770 nM. Against the preceding molecule, the EC50 is about 18-fold higher.
The molecule `CC(C)OC(=O)N1CCC(C2Cc3cc(-c4ccc(C(F)(F)F)nc4)ccc3O2)CC1` (centres unmarked) [Example 117] gave an EC50 of 374 nM.
On to `CC(C)OC(=O)N1CCC(C2Cc3cc(-c4ccc(S(C)(=O)=O)c(F)c4)ccc3O2)CC1` (centres unmarked) [Example 118], for which the EC50 is 15 nM.
Consider `COc1cc(-c2ccc3c(c2)CC(C2CCN(C(=O)OC(C)C)CC2)O3)ccc1C#N` (centres unmarked) [Example 119], for which the EC50 amounted to 855 nM.
The result for `CC(C)OC(=O)N1CCC(C2Cc3cc(-c4ccc5c(cnn5C)c4)ccc3O2)CC1` (centres unmarked) [Example 120] reads 387 nM; that for `CC(C)OC(=O)N1CCC(C2Cc3cc(-c4ccc(NS(C)(=O)=O)cc4)ccc3O2)CC1` (centres unmarked) [Example 121], 46 nM; that for `COCCN(C)C(=O)c1ccc(-c2ccc3c(c2)CC(C2CCN(C(=O)OC(C)C)CC2)O3)cc1` (centres unmarked) [Example 123, 4-(5-{4-[(2-Methoxy-ethyl)-methyl-carbamoyl]-phenyl}-2,3-dihydro-benzofuran-2-yl)-piperidine-1-carboxylic acid isopropyl ester], 30 nM.
As to `COCCN(C)C(=O)Cc1ccc(-c2ccc3c(c2)CC(C2CCN(C(=O)OC(C)C)CC2)O3)cc1` (centres unmarked) [Example 124], it took 70 nM to reach a half-maximal effect (EC50).
In turn, `CC(O)CCNC(=O)c1ccc(-c2ccc3c(c2)CC(C2CCN(C(=O)OC(C)C)CC2)O3)cc1` (centres unmarked) [Example 125] showed an EC50 of 110 nM.
The figure for `CC(O)CCNC(=O)Cc1ccc(-c2ccc3c(c2)CC(C2CCN(C(=O)OC(C)C)CC2)O3)cc1` (centres unmarked) [Example 126] is 168 nM; for `COC1CCN(C(=O)c2ccc(-c3ccc4c(c3)CC(C3CCN(C(=O)OC(C)C)CC3)O4)cc2)CC1` (centres unmarked) [Example 127] it is 25 nM.
The result for `COC1CCN(C(=O)Cc2ccc(-c3ccc4c(c3)CC(C3CCN(C(=O)OC(C)C)CC3)O4)cc2)CC1` (centres unmarked) [Example 128] reads 57 nM.
The result for `CC(O)CNC(=O)c1ccc(-c2ccc3c(c2)CC(C2CCN(C(=O)OC(C)C)CC2)O3)cc1` (centres unmarked) [Example 129] reads 73 nM.
As for `CC(O)CNC(=O)Cc1ccc(-c2ccc3c(c2)CC(C2CCN(C(=O)OC(C)C)CC2)O3)cc1` (centres unmarked) [Example 130], the response was half-maximal at 159 nM (EC50).
`CC(C)OC(=O)N1CCC(C2Cc3cc(-c4ccc(C(=O)N5CCC(O)C5)cc4)ccc3O2)CC1` (centres unmarked) [Example 131] came in with an EC50 of 95 nM.
Molecule `CC(C)OC(=O)N1CCC(C2Cc3cc(-c4ccc(CC(=O)N5CCC(O)C5)cc4)ccc3O2)CC1` (centres unmarked) [Example 132] registered an EC50 of 154 nM.
As for `CC(C)OC(=O)N1CCC(C2Cc3cc(-c4ccc(C(=O)NCC#N)cc4)ccc3O2)CC1` (centres unmarked) [Example 133], the EC50 was 104 nM.
The result for `CC(C)OC(=O)N1CCC(C2Cc3cc(-c4ccc(CC(=O)NCC#N)cc4)ccc3O2)CC1` (centres unmarked) [Example 134] reads 100 nM.
The result for `CC(C)OC(=O)N1CCC(C2Cc3cc(-c4ccc(C(=O)N5CC(F)(F)C5)cc4)ccc3O2)CC1` (centres unmarked) [Example 135] reads 38 nM.
The figure for `CC(C)OC(=O)N1CCC(C2Cc3cc(-c4ccc(CC(=O)N5CC(F)(F)C5)cc4)ccc3O2)CC1` (centres unmarked) [Example 136] is 11 nM; for `CC(C)OC(=O)N1CCC(C2Cc3cc(-c4ccc(C(=O)NCC5COCCO5)cc4)ccc3O2)CC1` (centres unmarked) [Example 137] it is 51 nM; for `CC(C)OC(=O)N1CCC(C2Cc3cc(-c4ccc(CC(=O)NCC5COCCO5)cc4)ccc3O2)CC1` (centres unmarked) [Example 138] it is 277 nM.
Take `CC(C)OC(=O)N1CCC(C2Cc3cc(-c4ccc(C(=O)N(C)C5CCCOC5)cc4)ccc3O2)CC1` (centres unmarked) [Example 139]: the midpoint of the response, the EC50, lay at 52 nM.
For `CC(C)OC(=O)N1CCC(C2Cc3cc(-c4ccc(CC(=O)N(C)C5CCCOC5)cc4)ccc3O2)CC1` (centres unmarked) [Example 140], the EC50 was found to be 63 nM.
As to `CC(C)OC(=O)N1CCC(C2Cc3cc(-c4ccc(C(=O)NCc5cocn5)cc4)ccc3O2)CC1` (centres unmarked) [Example 141], the EC50 came out at 40 nM. This EC50 lies about 1.6-fold lower than the previous one.
The result for `CC(C)OC(=O)N1CCC(C2Cc3cc(-c4ccc(CC(=O)NCc5cocn5)cc4)ccc3O2)CC1` (centres unmarked) [Example 142] reads 208 nM; that for `CC(C)OC(=O)N1CCC(C2Cc3cc(-c4ccc(C(=O)N5CCC(C)(O)C5)cc4)ccc3O2)CC1` (centres unmarked) [Example 143], 94 nM; that for `CC(C)OC(=O)N1CCC(C2Cc3cc(-c4ccc(CC(=O)N5CCC(C)(O)C5)cc4)ccc3O2)CC1` (centres unmarked) [Example 144], 110 nM.
`COC1CN(C(=O)c2ccc(-c3ccc4c(c3)CC(C3CCN(C(=O)OC(C)C)CC3)O4)cc2)C1` (centres unmarked) [Example 145] returned an EC50 of 38 nM.
The figure for `COC1CN(C(=O)Cc2ccc(-c3ccc4c(c3)CC(C3CCN(C(=O)OC(C)C)CC3)O4)cc2)C1` (centres unmarked) [Example 146] is 65 nM.
The result for `CC(C)OC(=O)N1CCC(C2Cc3cc(-c4ccc(C(=O)NCCC(C)(C)O)cc4)ccc3O2)CC1` (centres unmarked) [Example 147] reads 113 nM; that for `CC(C)OC(=O)N1CCC(C2Cc3cc(-c4ccc(CC(=O)NCCC(C)(C)O)cc4)ccc3O2)CC1` (centres unmarked) [Example 148], 98 nM; that for `CC(C)OC(=O)N1CCC(C2Cc3cc(-c4ccc(C(=O)N5CCOCC5)cc4)ccc3O2)CC1` (centres unmarked) [Example 149], 9 nM.
The molecule `CC(C)OC(=O)N1CCC(C2Cc3cc(-c4ccc(CC(=O)N5CCOCC5)cc4)ccc3O2)CC1` (centres unmarked) [Example 150] registered a 50% effective concentration (EC50) of 62 nM. This EC50 lies about 6.9-fold higher than the previous one.
